Measured values reported in ChEMBL document CHEMBL4257522, “Synthesis and preliminary anti-inflammatory and anti-bacterial evaluation of some diflunisal aza-analogs” (Medchemcomm, 2018).
Calls of active or inactive are those of the source. The rule behind the calls is not given here.

Assays:
Streptococcus pyogenes = experiment: Potentiation of erythromycin-induced antibacterial activity against Streptococcus pyogenes ATCC 14289 assessed as minimum modulatory concentration up to 32 uM measured after 16 hrs in presence of MIC/4 erythromycin; format: functional; settings: ATCC 14289, 16 h, read-out: MEC
Staphylococcus aureus [1] = experiment: Potentiation of erythromycin-induced antibacterial activity against Staphylococcus aureus ATCC 33592 assessed as minimum modulatory concentration up to 32 uM measured after 16 hrs in presence of MIC/4 erythromycin; format: functional; settings: ATCC 33592, 16 h, read-out: MEC
Enterococcus faecium [2] = experiment: Toxicity in Enterococcus faecium ATCC 700221 up to 32 uM measured after 16 hrs; format: organism-based; settings: in vitro
Escherichia coli [3] = experiment: Potentiation of erythromycin-induced antibacterial activity against Escherichia coli ATCC 43894 assessed as minimum modulatory concentration up to 32 uM measured after 16 hrs in presence of MIC/4 erythromycin; format: functional; settings: ATCC 43894, 16 h, read-out: MEC
Macrophage cell line [4] = experiment: Antiinflammatory activity in human PBMC-differentiated macrophages assessed as inhibition of LPS-induced TNFalpha production at 0.01 to 10 uM measured after 24 hrs by ELISA; format: functional, cell-based
Macrophage cell line [5] = experiment: Induction of IL-1beta production in human PBMC-differentiated macrophages after 24 hrs by ELISA; format: cell-based
Escherichia coli [6] = experiment: Potentiation of ciprofloxacin-induced antibacterial activity against Escherichia coli ATCC 43894 assessed as minimum modulatory concentration up to 32 uM measured after 16 hrs in presence of MIC/4 ciprofloxacin; format: functional; settings: ATCC 43894, 16 h, read-out: MEC
Macrophage cell line [7] = experiment: Induction of IL-8 production in human PBMC-differentiated macrophages after 24 hrs by ELISA; format: cell-based
Macrophage cell line [8] = experiment: Antiinflammatory activity in human PBMC-differentiated macrophages assessed as inhibition of LPS-induced IL-1beta production at 0.01 to 10 uM measured after 24 hrs by ELISA; format: functional, cell-based
Enterococcus faecium [9] = experiment: Potentiation of geneticin-induced antibacterial activity against Enterococcus faecium ATCC 700221 assessed as minimum modulatory concentration up to 32 uM measured after 16 hrs in presence of MIC/4 geneticin; format: functional; settings: ATCC 700221, 16 h, read-out: MEC
Enterococcus faecium [10] = experiment: Potentiation of ciprofloxacin-induced antibacterial activity against Enterococcus faecium ATCC 700221 assessed as minimum modulatory concentration up to 32 uM measured after 16 hrs in presence of MIC/4 ciprofloxacin; format: functional; settings: ATCC 700221, 16 h, read-out: MEC
Staphylococcus aureus [11] = experiment: Toxicity in Staphylococcus aureus ATCC 33592 up to 32 uM measured after 16 hrs; format: organism-based
Macrophage cell line [12] = experiment: Antiinflammatory activity in human PBMC-differentiated macrophages assessed as lowest concentration required to show at least 25% inhibition of LPS-induced IL-1beta production measured after 24 hrs by ELISA; format: functional
Macrophage cell line [13] = experiment: Antiinflammatory activity in human PBMC-differentiated macrophages assessed as lowest concentration required to show at least 25% inhibition of LPS-induced IL-8 production measured after 24 hrs by ELISA; format: functional
Macrophage cell line [14] = experiment: Antiinflammatory activity in human PBMC-differentiated macrophages assessed as lowest concentration required to show at least 25% inhibition of LPS-induced TNFalpha production measured after 24 hrs by ELISA; format: functional
Macrophage cell line [15] = experiment: Antiinflammatory activity in human PBMC-differentiated macrophages assessed as lowest concentration required to show at least 25% inhibition of LPS-induced prostaglandin production measured after 24 hrs by ELISA; format: functional

SMILES | minimal effective concentration (Streptococcus pyogenes) [µM] | minimal effective concentration (Staphylococcus aureus [1]) [µM] | Activity (Enterococcus faecium [2]) | minimal effective concentration (Escherichia coli [3]) [µM] | inhibition (Macrophage cell line [4]) | Activity (Macrophage cell line [5]) | minimal effective concentration (Escherichia coli [6]) [µM] | Activity (Macrophage cell line [7]) | inhibition (Macrophage cell line [8]) | minimal effective concentration (Enterococcus faecium [9]) [µM] | minimal effective concentration (Enterococcus faecium [10]) [µM] | Activity (Staphylococcus aureus [11]) | Activity (Macrophage cell line [12]) [µM] | Activity (Macrophage cell line [13]) [µM] | Activity (Macrophage cell line [14]) [µM] | Activity (Macrophage cell line [15]) [µM]
Cc1cc(C(=O)O)c(O)c(Cc2ccccc2)n1 | > 32 | > 32 | Non-Toxic | > 32 | inactive | Non-Toxic | > 32 | Non-Toxic | inactive | > 32 | > 32 | Non-Toxic |  |  |  | 
O=C(O)c1cnc(-c2ccccc2)c(O)c1 | 4 | 2 | Non-Toxic | > 32 | inactive | Non-Toxic | > 32 | Non-Toxic | inactive | 8 | > 32 | Non-Toxic |  |  |  | 
C[n+]1ccc(C(=O)[O-])c(O)c1Cc1ccccc1 | > 32 | > 32 | Non-Toxic | > 32 | inactive | Non-Toxic | > 32 | Non-Toxic | inactive | > 32 | > 32 | Non-Toxic |  |  |  | 
O=C(O)c1cc(-c2ccc(F)cc2F)ncc1O | 4 | 4 | Non-Toxic | > 32 |  | Non-Toxic | > 32 | Non-Toxic |  | 4 | > 32 | Non-Toxic | 1 | 1 | 1 | 10
COc1cccc(-c2cc(C(=O)[O-])c(O)c[n+]2C)c1 | > 32 | > 32 | Non-Toxic | > 32 | inactive | Non-Toxic | > 32 | Non-Toxic | inactive | > 32 | > 32 | Non-Toxic |  |  |  | 
Cc1nc(-c2ccccc2)c(O)cc1C(=O)O | 4 | 4 | Non-Toxic | > 32 |  | Non-Toxic | > 32 | Non-Toxic |  | 8 | > 32 | Non-Toxic | 10 |  | 10 | 
C[n+]1cc(O)c(C(=O)[O-])cc1-c1ccccc1 | > 32 | > 32 | Non-Toxic | > 32 | inactive | Non-Toxic | > 32 | Non-Toxic | inactive | > 32 | > 32 | Non-Toxic |  |  |  | 
O=C(O)c1cc(-c2ccccc2)nc(-c2ccccc2)c1O | 4 | 2 | Non-Toxic | > 32 |  | Non-Toxic | > 32 | Non-Toxic |  | 8 | > 32 | Non-Toxic | 10 |  | 10 | 10
O=C(O)c1cc(O)c(-c2ccccc2)nc1-c1ccccc1 | 8 | 8 | Non-Toxic | > 32 |  | Non-Toxic | > 32 | Non-Toxic |  | 4 | > 32 | Non-Toxic | 10 | 10 | 10 | 
O=C(O)c1cc(-c2ccc(F)cc2F)ccc1O [DIFLUNISAL] | > 32 | > 32 | Non-Toxic | > 32 | inactive | Non-Toxic | > 32 | Non-Toxic | inactive | > 32 | > 32 | Non-Toxic |  |  |  | 0.1
O=C(O)c1cnc2c(F)cc(F)cc2c1O | 8 | 1 | Non-Toxic | > 32 |  | Non-Toxic | > 32 | Non-Toxic |  | 4 | > 32 | Non-Toxic | 1 | 10 | 1 | 10
O=C(O)c1cc(O)cnc1-c1ccccc1 | 4 | 4 | Non-Toxic | > 32 |  | Non-Toxic | > 32 | Non-Toxic |  | 8 | > 32 | Non-Toxic | 10 | 10 | 10 | 
O=C(O)c1cc(-c2ccccc2)ncc1O | > 32 | > 32 | Non-Toxic | > 32 | inactive | Non-Toxic | > 32 | Non-Toxic | inactive | > 32 | > 32 | Non-Toxic |  |  |  | 
O=C(O)c1ccnc(-c2ccccc2)c1O | 2 | 0.25 | Non-Toxic | > 32 |  | Non-Toxic | > 32 | Non-Toxic |  | 4 | > 32 | Non-Toxic | 10 | 10 | 10 | 
COc1cccc(-c2cc(C(=O)O)c(O)cn2)c1 | > 32 | > 32 | Non-Toxic | > 32 | inactive | Non-Toxic | > 32 | Non-Toxic | inactive | > 32 | > 32 | Non-Toxic |  |  |  | 
O=C(O)c1ccnc(Cc2ccccc2)c1O | > 32 | > 32 | Non-Toxic | > 32 | inactive | Non-Toxic | > 32 | Non-Toxic | inactive | > 32 | > 32 | Non-Toxic |  |  |  | 
Cc1nc(-c2ccccc2)cc(C(=O)O)c1O | > 32 | > 32 | Non-Toxic | > 32 | inactive | Non-Toxic | > 32 | Non-Toxic | inactive | > 32 | > 32 | Non-Toxic |  |  |  | 
